PMC7308271, “Discovery of a new class of orthosteric antagonists with nanomolar potency at extrasynaptic GABAA receptors” (Scientific Reports, 2020)
Values joined by “and” are separate entries in the source; they are usually repeats but may differ in a detail not shown here. Equal values may be shown once. Read-outs that look alike come from different tables or passages of the source.

Experiments:
Type in all cases: cell-based
[1] = target: T1, human α4β2δ GABAΑ receptor (Homo sapiens, UniProt P47870+P48169); assay: FMP assay at α4β2δ GABAA receptors in HEK cells
T1 construct: expressed in transfected cells; host or cells: δ-HEK (HEK293 Flp-In stably expressing human δ), transiently transfected with α and β 1:1
Experimental: (§1) HEK293 cells were maintained in DMEM containing GlutaMAX-I, supplemented with 10% FBS and 1% penicillin-streptomycin and incubated at 37 °C and a humidity of 5% CO2. For expression of δ-containing GABAΑ receptors, a HEK293 Flp-In^ΤΜ cell line stably expressing the human GABAΑ δ-subunits (referred to as δ-HEK) was used and the γ-containing subtypes was expressed in a background HEK293 Flp-In^ΤΜ cell line stably expressing the G-protein coupled peptide receptor NPBWR2 (referred to as HEK background)[26], both positively selected for using 200 μg/mL hygromycin B. α1β2γ2 receptors were stably expressed in a HEK293 cell line maintained as above but with no selection (gift from Marianne L. Jensen, Neurosearch).
(§2) To express recombinant GABAΑ receptors human α1, α2, α3, α5, α6, β2, γ2 (pcDNA3.1/Zeo) and α4, β1 (pUNIV)[26] subunit cDNA were transiently transfected into either δ-HEK or HEK background cells. δ-HEK cells were transfected with α- and β-subunits in a 1:1 ration whereas HEK background cells were transfected with α-, β- and γ-subunits in a 1:1:2 ratio. Human BGT1 (pcDNA5/FRT)[43] was transiently transfected into the δ-HEK cell line. δ-HEK cells transfected for whole-cell patch-clamp recordings were co-transfected with green fluorescent protein (GFP) as well as α- and β-subunits in a 0.5:1:1 ratio (0.8 μg + 1.6 μg + 1.6 μg in a 6 cm dish) in order to identify transfected cells. The transfection was carried out using Polyfect as transfection reagent according to the manufactures protocol expect for using half the recommended volume of Polyfect.
(§3) The FMP assay was performed as previously described with a few modifications. Briefly, HEK cells were transfected as described[26] and 16–20 hours later plated (50,000 cells/well in DMEM medium) into clear-bottomed black 96-well plates coated with poly-D-lysine and the assay performed 20–28 hours later. The assay protocol including the FMP blue dye incorporation into membranes was exactly as described in Falk-Petersen et al.[26]. […] Data was obtained as changes in fluorescence units (∆RFU) by measuring emission at 560 nm caused by excitation at 530 nm. Unless otherwise mentioned in the text or figure legends experiments were performed in at least three independent experiments each using three technical replicates. Due to an observed edge effect for the FMP assay, outer wells were not used except for the screening.
Data obtained in the FMP assay are given as relative changes in fluorescence units (ΔRFU) by subtracting the average of the baseline fluorescence signal from the peak fluorescence signal after compound addition. All raw traces were inspected manually and peak signals resulting from compound/buffer addition together with signal artefacts were omitted from the analysis. […]

[2] = target: T2, human α1β2γ2 GABAΑ receptor (Homo sapiens, UniProt P14867+P47870); assay: FMP assay at α1β2γ2 GABAA receptors in HEK cells
T2 construct: expressed in transfected cells; host or cells: HEK293 line stably expressing α1β2γ2 (gift from Marianne L. Jensen, Neurosearch)
Experimental: as §1, §2
(§4) The FMP assay was performed as previously described with a few modifications. […] Data was obtained as changes in fluorescence units (∆RFU) by measuring emission at 560 nm caused by excitation at 530 nm. […]
(§5) Data obtained in the FMP assay are given as relative changes in fluorescence units (ΔRFU) by subtracting the average of the baseline fluorescence signal from the peak fluorescence signal after compound addition. […]

[3] = target: T3, human α4β1δ GABAΑ receptor (Homo sapiens, UniProt P18505+P48169); assay: FMP assay at α4β1δ GABAA receptors in HEK cells (screening, concentration-inhibition, Schild analysis); settings: for IC50: vs GABA EC80 0.27–1.0 μM, mean
T3 construct: expressed in transfected cells; host or cells: δ-HEK (HEK293 Flp-In stably expressing human δ), transiently transfected with α4 and β1 1:1
Description: We have previously established a FLIPR membrane potential (FMP) assay to study recombinant δ-containing GABAΑRs entailing a HEK293 Flp-In cell line stably expressing the human δ-subunit which is suitable for co-transfection with any desired α/β subunits. Initially, we validated the applicability of the FMP assay for efficient compound screening in 96-well microtiter plates using the human α4β1δ GABAΑR heterologously expressed in HEK cells. This receptor was chosen as we have previously shown this system to be reliable in expressing δ-containing receptors. To this end, we determined the Z′-factor, which is a statistical factor used to measure the suitability of an assay for high throughput screening.
Thus, we went on to further characterize 2027 by making a full concentration-inhibition curve.
as §1, §2
as §3, with “replicates.” for “replicates. Due to an observed edge effect for the FMP assay, outer wells were not used except for the screening.”
Data obtained in the FMP assay are given as relative changes in fluorescence units (ΔRFU) by subtracting the average of the baseline fluorescence signal from the peak fluorescence signal after compound addition. All raw traces were inspected manually and peak signals resulting from compound/buffer addition together with signal artefacts were omitted from the analysis.
The concentration-response curves obtained in the FMP assay for both agonists (determining EC50 values) and antagonists (determining IC50 values) were fitted using the four-parameter concentration-response model: Response=bottom+top−bottom/1+10^[(logEC50-A)⋅nH] EC/IC50 values describe the concentration resulting in the half-maximal response (halfway between top and bottom), and nΗ is the Hill coefficient.

[4] = target: T4, human α3β2γ2 GABAΑ receptor (Homo sapiens, UniProt P34903+P47870); assay: FMP assay at α3β2γ2 GABAA receptors in HEK cells
T4 construct: expressed in transfected cells; host or cells: HEK background (HEK293 Flp-In stably expressing NPBWR2), transient α:β:γ 1:1:2
Experimental: as §1, §2, §4, §5

[5] = target: T5, human α6β2δ GABAΑ receptor (Homo sapiens, UniProt P47870+Q16445); assay: FMP assay at α6β2δ GABAA receptors in HEK cells
T5 construct: expressed in transfected cells; host or cells: δ-HEK (HEK293 Flp-In stably expressing human δ), transiently transfected with α and β 1:1
Experimental: as §1, §2, §4, §5

[6] = target: T6, human α5β2γ2 GABAΑ receptor (Homo sapiens, UniProt P31644+P47870); assay: FMP assay at α5β2γ2 GABAA receptors in HEK cells
T6 construct: expressed in transfected cells; host or cells: HEK background (HEK293 Flp-In stably expressing NPBWR2), transient α:β:γ 1:1:2
Experimental: as §1, §2, §4, §5

[7] = target: T7, human α4β1γ2 GABAΑ receptor (Homo sapiens, UniProt P18505+P48169); assay: FMP assay at α4β1γ2 GABAA receptors in HEK cells
T7 construct: expressed in transfected cells; host or cells: HEK background (HEK293 Flp-In stably expressing NPBWR2), transient α:β:γ 1:1:2
Experimental: as §1, §2, §4, §5

[8] = target: T8, human α2β2γ2 GABAΑ receptor (Homo sapiens, UniProt P47869+P47870); assay: FMP assay at α2β2γ2 GABAA receptors in HEK cells
T8 construct: expressed in transfected cells; host or cells: HEK background (HEK293 Flp-In stably expressing NPBWR2), transient α:β:γ 1:1:2
Experimental: as §1, §2, §4, §5

[9] = read-out: pIC50 ± SEM (converted)

T3 sequence (P48169 36-554): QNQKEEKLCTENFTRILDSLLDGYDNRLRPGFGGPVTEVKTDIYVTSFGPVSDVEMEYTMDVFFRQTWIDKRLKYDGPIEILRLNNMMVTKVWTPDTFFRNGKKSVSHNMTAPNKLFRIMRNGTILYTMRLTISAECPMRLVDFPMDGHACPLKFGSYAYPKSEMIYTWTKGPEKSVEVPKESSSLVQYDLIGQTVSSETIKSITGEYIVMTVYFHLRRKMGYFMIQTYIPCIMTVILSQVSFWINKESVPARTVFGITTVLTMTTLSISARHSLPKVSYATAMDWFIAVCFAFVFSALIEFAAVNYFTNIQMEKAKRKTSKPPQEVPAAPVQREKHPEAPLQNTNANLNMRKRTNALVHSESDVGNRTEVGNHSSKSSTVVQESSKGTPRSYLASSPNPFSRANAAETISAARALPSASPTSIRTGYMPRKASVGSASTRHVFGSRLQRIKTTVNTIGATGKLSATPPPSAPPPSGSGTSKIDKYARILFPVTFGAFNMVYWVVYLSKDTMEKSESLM
T3 sequence (P18505 26-474): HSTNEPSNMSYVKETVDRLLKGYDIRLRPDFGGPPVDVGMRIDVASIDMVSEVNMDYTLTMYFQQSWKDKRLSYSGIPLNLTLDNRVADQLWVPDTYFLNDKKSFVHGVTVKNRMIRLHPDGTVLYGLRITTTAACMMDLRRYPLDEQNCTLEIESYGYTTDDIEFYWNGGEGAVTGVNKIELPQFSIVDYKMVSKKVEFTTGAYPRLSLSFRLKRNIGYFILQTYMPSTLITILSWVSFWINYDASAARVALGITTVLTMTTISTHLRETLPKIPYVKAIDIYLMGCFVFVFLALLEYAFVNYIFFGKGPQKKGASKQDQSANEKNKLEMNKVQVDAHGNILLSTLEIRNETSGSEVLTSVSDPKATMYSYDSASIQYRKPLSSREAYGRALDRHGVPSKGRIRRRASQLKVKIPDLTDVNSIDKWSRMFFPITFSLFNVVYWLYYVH
T3 sequence (O14764 25-452 partner): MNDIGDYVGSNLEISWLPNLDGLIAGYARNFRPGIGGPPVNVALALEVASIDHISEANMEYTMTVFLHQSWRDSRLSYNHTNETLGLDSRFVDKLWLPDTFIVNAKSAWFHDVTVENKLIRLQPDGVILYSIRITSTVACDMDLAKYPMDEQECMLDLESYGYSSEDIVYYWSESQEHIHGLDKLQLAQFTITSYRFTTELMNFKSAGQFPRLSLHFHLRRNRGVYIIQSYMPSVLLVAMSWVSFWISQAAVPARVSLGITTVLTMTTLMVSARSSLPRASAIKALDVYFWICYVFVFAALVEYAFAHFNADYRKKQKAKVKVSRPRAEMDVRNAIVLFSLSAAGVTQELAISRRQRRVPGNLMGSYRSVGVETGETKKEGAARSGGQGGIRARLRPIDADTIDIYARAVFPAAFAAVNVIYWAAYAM
T7 sequence (P48169 36-554): as the sequence (P48169 36-554) above
T7 sequence (P18505 26-474): as the sequence (P18505 26-474) above
T7 sequence (P18507 40-475 partner): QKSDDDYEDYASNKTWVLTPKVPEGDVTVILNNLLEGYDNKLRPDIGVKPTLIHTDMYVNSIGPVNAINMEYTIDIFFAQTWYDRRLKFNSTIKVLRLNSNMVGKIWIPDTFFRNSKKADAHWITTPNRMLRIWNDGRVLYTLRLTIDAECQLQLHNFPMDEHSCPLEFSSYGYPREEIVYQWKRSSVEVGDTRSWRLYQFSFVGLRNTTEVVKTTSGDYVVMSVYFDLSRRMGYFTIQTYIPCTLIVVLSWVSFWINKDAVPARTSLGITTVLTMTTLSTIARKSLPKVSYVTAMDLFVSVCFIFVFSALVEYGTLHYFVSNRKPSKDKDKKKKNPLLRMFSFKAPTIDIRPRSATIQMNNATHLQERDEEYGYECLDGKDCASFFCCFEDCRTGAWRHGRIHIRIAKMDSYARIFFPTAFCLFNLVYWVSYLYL
T1 sequence (P48169 36-554): as the sequence (P48169 36-554) above
T1 sequence (P47870 25-512 limits assumed): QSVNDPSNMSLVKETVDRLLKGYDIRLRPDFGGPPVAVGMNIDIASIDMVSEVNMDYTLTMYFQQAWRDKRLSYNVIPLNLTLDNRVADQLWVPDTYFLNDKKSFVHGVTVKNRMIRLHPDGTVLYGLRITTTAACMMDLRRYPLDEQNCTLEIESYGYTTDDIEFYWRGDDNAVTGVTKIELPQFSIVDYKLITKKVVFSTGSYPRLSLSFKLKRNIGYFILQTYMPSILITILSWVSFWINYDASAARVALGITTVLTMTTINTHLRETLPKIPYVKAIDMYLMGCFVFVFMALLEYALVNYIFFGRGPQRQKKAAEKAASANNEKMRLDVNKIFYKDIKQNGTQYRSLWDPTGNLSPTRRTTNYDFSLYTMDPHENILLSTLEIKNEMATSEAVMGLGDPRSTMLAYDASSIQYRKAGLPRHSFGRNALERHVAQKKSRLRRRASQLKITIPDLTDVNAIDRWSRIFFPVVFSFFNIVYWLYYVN
T1 sequence (O14764 25-452 partner): as the sequence (O14764 25-452 partner) above
T8 sequence (P47869 29-451): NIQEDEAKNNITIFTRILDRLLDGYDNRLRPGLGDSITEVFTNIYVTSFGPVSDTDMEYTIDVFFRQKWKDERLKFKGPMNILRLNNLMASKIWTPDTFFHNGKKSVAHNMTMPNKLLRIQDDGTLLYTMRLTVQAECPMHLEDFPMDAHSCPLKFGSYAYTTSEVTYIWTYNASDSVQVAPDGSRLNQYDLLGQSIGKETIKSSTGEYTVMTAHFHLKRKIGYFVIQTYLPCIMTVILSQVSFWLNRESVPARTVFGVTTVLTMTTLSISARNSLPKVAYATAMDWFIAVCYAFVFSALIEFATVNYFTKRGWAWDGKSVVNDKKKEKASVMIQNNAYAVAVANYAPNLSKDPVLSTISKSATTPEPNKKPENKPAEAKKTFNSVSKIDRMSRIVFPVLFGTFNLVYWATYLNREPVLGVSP
T8 sequence (P47870 25-512 limits assumed): as the sequence (P47870 25-512 limits assumed) above
T8 sequence (P18507 40-475 partner): as the sequence (P18507 40-475 partner) above
T6 sequence (P31644 32-462): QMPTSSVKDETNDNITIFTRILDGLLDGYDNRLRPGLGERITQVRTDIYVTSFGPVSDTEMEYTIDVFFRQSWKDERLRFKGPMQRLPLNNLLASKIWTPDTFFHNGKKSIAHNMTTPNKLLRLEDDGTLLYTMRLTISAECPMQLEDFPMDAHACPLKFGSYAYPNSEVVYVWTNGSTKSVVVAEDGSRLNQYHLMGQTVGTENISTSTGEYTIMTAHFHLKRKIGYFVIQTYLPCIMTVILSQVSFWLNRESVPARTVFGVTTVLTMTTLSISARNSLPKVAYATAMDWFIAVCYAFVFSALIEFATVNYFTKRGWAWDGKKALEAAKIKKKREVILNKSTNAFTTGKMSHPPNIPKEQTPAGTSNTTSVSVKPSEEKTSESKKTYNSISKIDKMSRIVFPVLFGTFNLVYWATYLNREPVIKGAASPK
T6 sequence (P47870 25-512 limits assumed): as the sequence (P47870 25-512 limits assumed) above
T6 sequence (P18507 40-475 partner): as the sequence (P18507 40-475 partner) above
T5 sequence (Q16445 20-453): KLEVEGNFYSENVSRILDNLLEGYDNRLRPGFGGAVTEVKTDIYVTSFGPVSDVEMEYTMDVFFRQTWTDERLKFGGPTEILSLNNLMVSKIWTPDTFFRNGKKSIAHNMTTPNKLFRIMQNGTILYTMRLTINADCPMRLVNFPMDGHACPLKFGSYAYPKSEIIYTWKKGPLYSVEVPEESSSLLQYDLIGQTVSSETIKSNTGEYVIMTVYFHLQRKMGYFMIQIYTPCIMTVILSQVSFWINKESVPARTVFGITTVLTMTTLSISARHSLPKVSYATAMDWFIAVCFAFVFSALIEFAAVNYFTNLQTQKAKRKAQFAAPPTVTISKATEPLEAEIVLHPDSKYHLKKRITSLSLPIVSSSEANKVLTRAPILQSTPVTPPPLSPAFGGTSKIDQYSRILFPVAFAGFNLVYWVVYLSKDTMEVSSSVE
T5 sequence (P47870 25-512 limits assumed): as the sequence (P47870 25-512 limits assumed) above
T5 sequence (O14764 25-452 partner): as the sequence (O14764 25-452 partner) above
T4 sequence (P34903 29-492): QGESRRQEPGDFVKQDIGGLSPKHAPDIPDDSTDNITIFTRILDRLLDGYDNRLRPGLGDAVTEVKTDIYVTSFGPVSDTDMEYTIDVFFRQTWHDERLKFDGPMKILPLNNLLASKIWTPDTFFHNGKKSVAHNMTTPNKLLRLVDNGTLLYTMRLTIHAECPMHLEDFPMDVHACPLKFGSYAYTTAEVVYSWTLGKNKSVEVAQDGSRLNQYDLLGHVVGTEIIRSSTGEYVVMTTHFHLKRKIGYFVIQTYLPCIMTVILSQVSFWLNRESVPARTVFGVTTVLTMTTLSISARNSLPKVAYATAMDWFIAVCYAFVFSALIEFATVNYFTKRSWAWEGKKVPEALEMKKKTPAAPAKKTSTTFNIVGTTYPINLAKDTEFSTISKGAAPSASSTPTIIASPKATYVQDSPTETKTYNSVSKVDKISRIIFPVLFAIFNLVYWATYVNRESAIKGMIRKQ
T4 sequence (P47870 25-512 limits assumed): as the sequence (P47870 25-512 limits assumed) above
T4 sequence (P18507 40-475 partner): as the sequence (P18507 40-475 partner) above

Q: Which “GABA EC80” value ([1]; α4β2δ, calculated from GABA potencies) does the source give for `NCCCC(=O)O` [GABA] here?
A: 800 to 1000 nM

Q: What about the “GABA EC80” value ([2]; α1β2γ2, calculated from GABA potencies) of the same molecule?
A: 8000 nM

Q: And the “GABA EC80” value ([3]; calculated from GABA potencies)?
A: 270 to 1000 nM

Q: What about the “GABA EC80” value ([4]; α3β2γ2, calculated from GABA potencies) of the same molecule?
A: 10000 nM

Q: And the “GABA EC80” value ([5]; α6β2δ, calculated from GABA potencies)?
A: 3000 nM

Q: What about the “GABA EC80” value ([6]; α5β2γ2, calculated from GABA potencies) of the same molecule?
A: 3000 nM

Q: What about the “GABA EC80” value ([7]; α4β1γ2, calculated from GABA potencies) of the same molecule?
A: 4000 to 8000 nM

Q: And the “GABA EC80” value ([8]; α2β2γ2, calculated from GABA potencies)?
A: 10000 nM

Q: What does the source list for `O=C(Nc1cccc(C(=O)N2CCC3(CCNCC3)CC2)c1)c1cccs1` [compound 018, N-(3-(3,9-diazaspiro[5.5]undecane-3-carbonyl)phenyl)thiophene-2-carboxamide]?
A: increased potency at α4β2δ compared to α1β2γ2 ([1]; IC50 68 nM vs 790 nM): 12 times; IC50 ([1]; read-out: IC50): 68 nM; IC50 [2]: 790 nM; Kd ([3]; Gaddum/Schild analysis, read-out: KΒ from Schild analysis): 19 nM; potency of 018 relative to 2027 ([3]; IC50 ratio): approximately 10 times; IC50 [3]: 90 nM and 88 nM; IC50 ([4]; read-out: IC50): 79 nM; IC50 [5, 9]: 331 nM; IC50 [6]: 51 nM; IC50 [7]: 37.2 nM; IC50 [8, 9]: 324 nM

Q: With `CC(=O)Nc1cccc(C(=O)N2CCC3(CCNCC3)CC2)c1` [compound 2027, N-(3-(3,9-diazaspiro[5.5]undecane-3-carbonyl)phenyl)acetamide] as the molecule, how does the IC50 [1, 9] read?
A: 363 nM

Q: What about the IC50 [2] of the same molecule?
A: 4960 nM

Q: What about the “hit validation, antagonistic effect” value ([3]; 100, 50 and 10 μM in triplicates) of the same molecule?
A: showed antagonistic effect

Q: What about the inhibition at 10 µM ([3]; HEK293, read-out: inhibition of the GABA EC80 signal, primary screening, 10 μM, singlicates) of the same molecule?
A: > 50%

Q: What about the IC50 [3] of the same molecule?
A: 1030 nM

Q: What about the IC50 [4, 9] of the same molecule?
A: 288 nM

Q: And the IC50 ([5]; read-out: IC50)?
A: 4130 nM

Q: What about the IC50 [6] of the same molecule?
A: 590 nM

Q: What about the IC50 [7] of the same molecule?
A: 166 nM

Q: What about the IC50 ([8]; read-out: IC50) of the same molecule?
A: 2960 nM
